Measured values: US8466155B2, “Pyrimidines” (Boehringer Ingelheim International GmbH, priority 2009, dated 2013)

Biological target: T1, PTK2 (Homo sapiens, UniProt Q05397)
T1 construct: purchased Invitrogen PV3832
Assay: PTK2 enzyme test, Assay 1 (DELFIA, PT60 antibody)
Format: biochemical
Settings: 1 h pre-incubation, 1 h kinase reaction, values without *
Protocol: This test uses active PTK2 enzyme (Invitrogen Code PV3832) and poly-Glu-Tyr (4:1, Sigma P-0275) as the kinase substrate. The kinase activity is detected through the phosphorylation of the substrate in a DELFIA™ assay. The phosphorylated substrate is detected with the europium-labelled phosphotyrosine antibody PT60 (Perkin Elmer, No.: AD00400).
In order to determine concentration-activity curves with PTK2-inhibitors the compounds are serially diluted in 10% DMSO/H20 and 10 μL of each dilution are placed in each well of a 96-well microtitre plate (clear plate with a U-shaped base, Greiner No. 650101) (the inhibitors are tested in duplicates) and mixed with 10 μL/well of PTK2 kinase (0.01 μg/well). PTK2 kinase has been correspondingly diluted beforehand with kinase dilution buffer (20 mM TRIS/HCl pH 7.5, 0.1 mM EDTA, 0.1 mM EGTA, 0.286 mM sodium orthovanadate, 10% glycerol with the addition of freshly prepared BSA (fraction V, 1 mg/mL) and DTT (1 mM)). The test compound and the PTK2 kinase are pre-incubated for 1 h at RT and shaken at 500 revolutions per min. The reaction is started by the addition of 10 μL/well poly (Glu,Tyr) substrate (25 μg/well poly (Glu, Tyr), 0.05 μg/well biotinylated poly (Glu,Tyr) dissolved in 250 mM TRIS/HCl pH 7.5, 9 mM DTT)—the final concentration of DMSO is 2%. Then 20 μL of ATP Mix (30 mM TRIS/HCl pH 7.5, 0.02% Brij, 0.2 mM sodium orthovanadate, 10 mM magnesium acetate, 0.1 mM EGTA, 1× phosphatase inhibitor cocktail 1 (Sigma, No.: P2850), 50 μM ATP (Sigma, No.: A3377; 15 mM stock solution)) are added. After 1 h of kinase reaction (the plates are shaken at 500 rpm), the reaction is stopped by the addition of 12 μL/well 100 mM EDTA, pH 8.0 and shaken for a further 5 min at RT (500 rpm). 55 μL of the reaction mixture are transferred into a streptavidin plate (Strepta Well High Bind (transparent, 96-well) made by Roche, No.: 11989685001) and incubated for 1 h at RT (shaking at 500 rpm). Then the microtitre plate is washed three times with 200 μL/well D-PBS (Invitrogen, No. 14190). 100 μL of a solution containing DELFIA Eu-N1 Anti-Phosphotyrosine PT60 antibody (Perkin Elmer, No.: AD0040, diluted 1:2000 in DELFIA test buffer (Perkin Elmer, No.: 1244-111)) is then added and the mixture is incubated for 1 h at RT (shaking at 500 rpm). Then the plate is washed three times with 200 μL/well DELFIA washing buffer (Perkin Elmer, No.: 1244-114), 200 μL/well strengthening solution (Perkin Elmer, No.: 1244-105) are added and the mixture is incubated for 10 min at RT (shaking at 300 rpm).
The time-delayed europium fluorescence is then measured in a microtitre plate reader (VICTOR^3, Perkin Elmer). […] Wells that contain test buffer instead of enzyme are used as a control of the background kinase activity.
The IC50 values are determined from analyses of the concentration activity by iterative calculation with the aid of a sigmoid curve analysis algorithm (FIFTY, based on GraphPAD Prism Version 3.03) with a variable Hill coefficient.

T1 sequence (Q05397 whole entry): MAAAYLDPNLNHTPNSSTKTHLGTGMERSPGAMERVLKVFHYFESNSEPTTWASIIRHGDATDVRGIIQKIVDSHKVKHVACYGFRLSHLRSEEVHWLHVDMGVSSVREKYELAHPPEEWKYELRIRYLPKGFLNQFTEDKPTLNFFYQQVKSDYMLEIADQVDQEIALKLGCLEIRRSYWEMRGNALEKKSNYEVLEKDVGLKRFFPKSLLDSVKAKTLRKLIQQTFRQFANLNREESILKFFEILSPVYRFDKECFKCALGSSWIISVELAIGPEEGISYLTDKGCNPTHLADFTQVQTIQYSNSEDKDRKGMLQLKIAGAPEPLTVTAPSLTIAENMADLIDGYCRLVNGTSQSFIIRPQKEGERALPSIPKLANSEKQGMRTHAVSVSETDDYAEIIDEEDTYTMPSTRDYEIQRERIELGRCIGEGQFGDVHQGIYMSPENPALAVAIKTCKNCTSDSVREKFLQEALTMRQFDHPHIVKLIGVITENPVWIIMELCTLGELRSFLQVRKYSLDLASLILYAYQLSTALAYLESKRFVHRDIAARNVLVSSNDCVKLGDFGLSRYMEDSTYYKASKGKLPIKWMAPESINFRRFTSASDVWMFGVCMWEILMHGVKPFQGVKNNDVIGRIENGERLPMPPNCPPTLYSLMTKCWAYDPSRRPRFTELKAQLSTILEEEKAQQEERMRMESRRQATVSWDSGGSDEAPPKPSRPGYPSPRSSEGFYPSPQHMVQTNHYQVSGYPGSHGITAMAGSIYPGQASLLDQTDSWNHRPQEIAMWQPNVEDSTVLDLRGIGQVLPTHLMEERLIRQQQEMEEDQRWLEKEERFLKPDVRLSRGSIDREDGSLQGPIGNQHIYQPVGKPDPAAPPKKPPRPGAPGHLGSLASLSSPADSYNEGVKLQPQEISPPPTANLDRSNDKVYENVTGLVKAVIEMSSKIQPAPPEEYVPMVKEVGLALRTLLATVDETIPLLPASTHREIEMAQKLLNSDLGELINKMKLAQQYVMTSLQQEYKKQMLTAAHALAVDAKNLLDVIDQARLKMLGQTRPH

SMILES	IC50 [nM]
COc1cc(C(=O)NC2CCN(C)CC2)c(F)cc1Nc1ncc(C(F)(F)F)c(O[C@@H]2Cc3ccccc3[C@H]2N(C)S(C)(=O)=O)n1 [Example 25, 2-fluoro-4-{4-[(1R,2R)-1-(methanesulphonyl-methyl-amino)-indan-2-yloxy]-5-trifluoromethyl-pyrimidin-2-ylamino}-5-methoxy-N-(1-methyl-piperidin-4-yl)-benzamide]	2
COc1cc(C(=O)NC2CCN(C)CC2)ccc1Nc1ncc(C(F)(F)F)c(O[C@@H]2Cc3ccccc3[C@H]2N(C)S(C)(=O)=O)n1 [Example 27, 4-{4-[(1R,2R)-1-(methanesulphonyl-methyl-amino)-indan-2-yloxy]-5-trifluoromethyl-pyrimidin-2-ylamino}-3-methoxy-N-(1-methyl-piperidin-4-yl)-benzamide]	1
COc1cc(C(=O)NC2CCN(C)CC2)c(F)cc1Nc1ncc(C(F)(F)F)c(O[C@@H]2CCC[C@H]2NS(C)(=O)=O)n1 [Example 28, 2-fluoro-4-[4-((1R,2R)-2-methanesulphonylamino-cyclopentyloxy)-5-trifluoromethyl-pyrimidin-2-ylamino]-5-methoxy-N-(1-methyl-piperidin-4-yl)-benzamide]	2
COc1cc(C(=O)N[C@H]2CCN(C)C[C@@H]2OC)ccc1Nc1ncc(C(F)(F)F)c(O[C@@H]2Cc3ccccc3[C@H]2N(C)S(C)(=O)=O)n1 [Example 29, 4-{4-[(1R,2R)-1-(methanesulphonyl-methyl-amino)-indan-2-yloxy]-5-trifluoromethyl-pyrimidin-2-ylamino}-3-methoxy-N-((3S,4S)-3-methoxy-1-methyl-piperidin-4-yl)-benzamide]	3
COc1cc(C(=O)N[C@H]2CCN(C)C[C@@H]2OC)c(F)cc1Nc1ncc(C(F)(F)F)c(O[C@@H]2Cc3ccccc3[C@H]2N(C)S(C)(=O)=O)n1 [Example 31, 2-fluoro-4-{4-[(1R,2R)-1-(methanesulphonyl-methyl-amino)-indan-2-yloxy]-5-trifluoromethyl-pyrimidin-2-ylamino}-5-methoxy-N-((3S,4S)-3-methoxy-1-methyl-piperidin-4-yl)-benzamide]	3
COc1cc(C(=O)NC2CCN(C)CC2)ccc1Nc1ncc(C(F)(F)F)c(O[C@H]2Cc3ccccc3[C@@H]2N(C)S(C)(=O)=O)n1 [Example 32]	400
COc1cc(C(=O)NCCN2CCN(C)CC2)c(Cl)cc1Nc1ncc(Cl)c(O[C@@H]2Cc3ccccc3[C@H]2N(C)S(C)(=O)=O)n1 [Example 34]	2
COc1cc(C(=O)NCCn2ccnc2C)c(Cl)cc1Nc1ncc(Cl)c(O[C@@H]2Cc3ccccc3[C@H]2N(C)S(C)(=O)=O)n1 [Example 35]	2
COc1cc(C(=O)NC[C@H](O)CO)c(Cl)cc1Nc1ncc(Cl)c(O[C@@H]2Cc3ccccc3[C@H]2N(C)S(C)(=O)=O)n1 [Example 36]	3
COc1cc(C(=O)N(C)C)c(Cl)cc1Nc1ncc(Cl)c(O[C@@H]2Cc3ccccc3[C@H]2N(C)S(C)(=O)=O)n1 [Example 37]	28
CONC(=O)c1cc(OC)c(Nc2ncc(Cl)c(O[C@@H]3Cc4ccccc4[C@H]3N(C)S(C)(=O)=O)n2)cc1Cl [Example 38]	1
COc1cc(C(=O)NCC(C)(C)C)c(Cl)cc1Nc1ncc(Cl)c(O[C@@H]2Cc3ccccc3[C@H]2N(C)S(C)(=O)=O)n1 [Example 39]	6
COc1cc(C(=O)NCCN(C)C)c(Cl)cc1Nc1ncc(Cl)c(O[C@@H]2Cc3ccccc3[C@H]2N(C)S(C)(=O)=O)n1 [Example 40]	3
COc1cc(C(=O)NCCCN(C)C)c(Cl)cc1Nc1ncc(Cl)c(O[C@@H]2Cc3ccccc3[C@H]2N(C)S(C)(=O)=O)n1 [Example 41]	2
COc1cc(C(=O)NC[C@@H](O)CO)c(Cl)cc1Nc1ncc(Cl)c(O[C@@H]2Cc3ccccc3[C@H]2N(C)S(C)(=O)=O)n1 [Example 42]	4
CONC(=O)c1cc(OC)c(Nc2ncc(Cl)c(O[C@@H]3Cc4ccccc4[C@H]3N(C)S(C)(=O)=O)n2)cc1F [Example 43]	22
CCS(=O)(=O)N[C@@H]1CCC[C@H]1Oc1nc(Nc2cc(F)c(C(=O)NC3CCN(C)CC3)cc2OC)ncc1C(F)(F)F [Example 44]	6
COc1cc(C(=O)NC2CCN(C)CC2)c(F)cc1Nc1ncc(C(F)(F)F)c(O[C@@H]2CCC[C@H]2NS(=O)(=O)CCl)n1 [Example 45]	5
COc1cc(C(=O)NC2CCN(C)CC2)c(F)cc1Nc1ncc(C(F)(F)F)c(O[C@@H]2CCC[C@H]2NS(=O)(=O)C2CC2)n1 [Example 46]	34
COc1cc(C(=O)NC2CCN(C)CC2)c(Cl)cc1Nc1ncc(C(F)(F)F)c(O[C@@H]2CCC[C@H]2NS(=O)(=O)CCl)n1 [Example 47]	3

SMILES	IC50 [nM]
COc1cc(C(=O)NC2CCN(C)CC2)c(Cl)cc1Nc1ncc(C(F)(F)F)c(O[C@@H]2CCC[C@H]2NS(=O)(=O)C2CC2)n1 [Example 48]	22
COc1cc(C(=O)NC[C@H](O)CO)ccc1Nc1ncc(C(F)(F)F)c(O[C@@H]2Cc3ccccc3[C@H]2N(C)S(C)(=O)=O)n1 [Example 49]	5
COc1cc(C(=O)NC[C@@H](O)CO)ccc1Nc1ncc(C(F)(F)F)c(O[C@@H]2Cc3ccccc3[C@H]2N(C)S(C)(=O)=O)n1 [Example 50]	4
COc1cc(C(=O)NC[C@@H](O)CO)c(F)cc1Nc1ncc(Cl)c(O[C@@H]2Cc3ccccc3[C@H]2N(C)S(C)(=O)=O)n1 [Example 51]	13
COc1cc(C(=O)NCCn2ccnc2C)c(F)cc1Nc1ncc(Cl)c(O[C@@H]2Cc3ccccc3[C@H]2N(C)S(C)(=O)=O)n1 [Example 52]	6
COc1cc(C(=O)NCCN(C)C)c(F)cc1Nc1ncc(Cl)c(O[C@@H]2Cc3ccccc3[C@H]2N(C)S(C)(=O)=O)n1 [Example 53]	4
COc1cc(C(=O)N(C)C)c(F)cc1Nc1ncc(Cl)c(O[C@@H]2Cc3ccccc3[C@H]2N(C)S(C)(=O)=O)n1 [Example 54]	92
COc1cc(C(=O)N[C@H]2CC[C@H](O)CC2)c(F)cc1Nc1ncc(Cl)c(O[C@@H]2Cc3ccccc3[C@H]2N(C)S(C)(=O)=O)n1 [Example 55]	6
COc1cc(C(=O)NC[C@H](O)CO)c(F)cc1Nc1ncc(Cl)c(O[C@@H]2Cc3ccccc3[C@H]2N(C)S(C)(=O)=O)n1 [Example 56]	9
COc1cc(C(=O)NCCN2CCN(C)CC2)c(F)cc1Nc1ncc(Cl)c(O[C@@H]2Cc3ccccc3[C@H]2N(C)S(C)(=O)=O)n1 [Example 57]	2
COc1cc(C(=O)N[C@H]2CC[C@H](N3CCN(CC4CC4)CC3)CC2)c(F)cc1Nc1ncc(Cl)c(O[C@@H]2Cc3ccccc3[C@H]2N(C)S(C)(=O)=O)n1 [Example 58]	6
COc1cc(C(=O)NN2CCN(C)CC2)c(F)cc1Nc1ncc(Cl)c(O[C@@H]2Cc3ccccc3[C@H]2N(C)S(C)(=O)=O)n1 [Example 59]	6
COc1cc(C(=O)NCCCN(C)C)c(F)cc1Nc1ncc(Cl)c(O[C@@H]2Cc3ccccc3[C@H]2N(C)S(C)(=O)=O)n1 [Example 60]	3
COc1cc(C(=O)NC2CCN(C)CC2)c(Cl)cc1Nc1ncc(Cl)c(O[C@@H]2Cc3ccccc3[C@H]2N(C)S(C)(=O)=O)n1 [Example 62]	3
COc1cc(C(=O)NN2CCN(C)CC2)c(Cl)cc1Nc1ncc(Cl)c(O[C@@H]2Cc3ccccc3[C@H]2N(C)S(C)(=O)=O)n1 [Example 63]	3
COc1cc(C(=O)NC[C@@H](O)CO)c(F)cc1Nc1ncc(C(F)(F)F)c(O[C@@H]2Cc3ccccc3[C@H]2N(C)S(C)(=O)=O)n1 [Example 64]	6
COc1cc(C(=O)NC[C@H](O)CO)c(F)cc1Nc1ncc(C(F)(F)F)c(O[C@@H]2Cc3ccccc3[C@H]2N(C)S(C)(=O)=O)n1 [Example 65]	10
COc1cc(C(=O)NCC2CC2)c(F)cc1Nc1ncc(Cl)c(O[C@@H]2Cc3ccccc3[C@H]2N(C)S(C)(=O)=O)n1 [Example 66]	16
CNC(=O)c1cc(OC)c(Nc2ncc(Cl)c(O[C@@H]3Cc4ccccc4[C@H]3N(C)S(C)(=O)=O)n2)cc1F [Example 67]	16
